Laboratory results: patent US4250255A, “Assay method for isoenzyme activity” (Eastman Kodak Company, priority 1977, dated 1981)

Columns and labels:
LD2 = target: T1, LD2 (Sus scrofa, UniProt P00336+P00339); experiment: LDH activity assay with amphiphile, LDH isoenzymes; type: biochemical, porcine; details: pH 7.4, read-out: LD2 activity remaining relative to buffer
T1 construct: porcine LDH, LD1, LD2, LD3, LD4 and LD5 in the form of ammonium sulfate suspensions
Method: (§1) 3. Beef heart LDH (Sigma Chemical Co., Type III), rabbit muscle LDH (Sigma Chemical Co., Type V) and porcine LDH, LD1, LD2, LD3, LD4 and LD5 in the form of ammonium sulfate suspensions were used for these examples.
(§2) The assay for LDH activity in both the absence and presence of surfactant was conducted as follows. […] The resulting solution contains approximately 5 units/ml. […] To the equilibrated solution […]. of the enzyme solution was added, and the cuvette was rapidly shaken while covering the top of the cuvette with a small piece of Parafilm® and placed back into the spectrophotometer.
(§3) Amphiphile solutions were prepared by weighing out a given amount of amphiphile, e.g., 100 mg, and preparing a stock solution in 30 mM sodium phosphate buffer in 100 ml. volumetric flask. Solutions of lower amphiphile concentration were prepared by making the appropriate dilutions from the stock solution.

LD3 = target: T2, LD3 (Sus scrofa, UniProt P00336+P00339); experiment: LDH activity assay with amphiphile, LDH isoenzymes; type: biochemical, porcine; details: pH 7.4, read-out: LD3 activity remaining relative to buffer
T2 construct: porcine LDH, LD1, LD2, LD3, LD4 and LD5 in the form of ammonium sulfate suspensions
Method: as §1, §2, §3

LD4 = target: T3, LD4 (Sus scrofa, UniProt P00336+P00339); experiment: LDH activity assay with amphiphile, LDH isoenzymes; type: biochemical, porcine; details: 7 mM DSS; FIG. 8
T3 construct: porcine LDH, LD1, LD2, LD3, LD4 and LD5 in the form of ammonium sulfate suspensions
Method: as §1, §2, §3

human LD1 = target: T4, human LD1 (Homo sapiens, UniProt P07195); experiment: LDH assay with human enzyme-containing serum; type: biochemical; details: 0.1 M DSS; pH 7.8; 14% protein
T4 construct: A specific human LDH isoenzyme (obtained from liver homogenate or red blood cell); from tissue; host or cells: human liver homogenate or red blood cell
Method: as §2
(§4) Pooled human serum, kept frozen until ready for use, was raised to pH 11.5 until all LDH activity was destroyed. The pH was then adjusted to 7.4 and the serum was again assayed for LDH activity to ensure that no LDH had been reactivated. A specific human LDH isoenzyme (obtained from liver homogenate or red blood cell) was then added to the pool to give an enzyme concentration of ~100 U/l. The spiked serum samples were refrigerated between uses and respiked when necessary. Fresh serum was prepared weekly.
(§5) 8. The assay method used is the same as described above for Examples 1-12, except that the test samples consisted of 25-30 μl of serum instead of 100 μl of aqueous enzyme solution.

human LD2 = target: T5, human LD2 (Homo sapiens, UniProt P00338+P07195); experiment: LDH assay with human enzyme-containing serum; type: biochemical; details: 0.1 M DSS; pH 7.8; 14% protein
T5 construct: A specific human LDH isoenzyme (obtained from liver homogenate or red blood cell); from tissue; host or cells: human liver homogenate or red blood cell
Method: as §2, §4, §5

human LD3 = target: T6, human LD3 (Homo sapiens, UniProt P00338+P07195); experiment: LDH assay with human enzyme-containing serum; type: biochemical; details: 0.1 M DSS; pH 7.8; 14% protein
T6 construct: A specific human LDH isoenzyme (obtained from liver homogenate or red blood cell); from tissue; host or cells: human liver homogenate or red blood cell
Method: as §2, §4, §5

human LD4 = target: T7, human LD4 (Homo sapiens, UniProt P00338+P07195); experiment: LDH assay with human enzyme-containing serum; type: biochemical; details: 0.1 M DSS; pH 7.8; 14% protein
T7 construct: A specific human LDH isoenzyme (obtained from liver homogenate or red blood cell); from tissue; host or cells: human liver homogenate or red blood cell
Method: as §2, §4, §5

human LD5 = target: T8, human LD5 (Homo sapiens, UniProt P00338); experiment: LDH assay with human enzyme-containing serum; type: biochemical; details: 0.1 M DSS; pH 7.8; 14% protein
T8 construct: A specific human LDH isoenzyme (obtained from liver homogenate or red blood cell); from tissue; host or cells: human liver homogenate or red blood cell
Method: as §2, §4, §5

mMDH = target: T9, mMDH (Sus scrofa, UniProt P00346); experiment: Assay for MDH (oxalacetic acid + NADH, 340 nm); type: biochemical, porcine; details: FIG. 17
T9 construct: Porcine cMDH and mMDH were used as ammonium sulfate suspensions
T9 sequence (P00346 25-338): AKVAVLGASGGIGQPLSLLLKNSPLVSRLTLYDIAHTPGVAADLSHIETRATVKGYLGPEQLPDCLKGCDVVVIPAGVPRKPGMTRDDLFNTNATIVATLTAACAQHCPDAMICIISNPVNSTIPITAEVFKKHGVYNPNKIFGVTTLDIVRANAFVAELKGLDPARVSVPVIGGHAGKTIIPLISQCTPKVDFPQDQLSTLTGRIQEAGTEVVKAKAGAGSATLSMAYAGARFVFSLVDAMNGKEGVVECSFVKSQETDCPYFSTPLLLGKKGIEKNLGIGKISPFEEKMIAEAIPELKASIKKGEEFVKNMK
Method: 1. Porcine cMDH and mMDH were used as ammonium sulfate suspensions. Typically, 5 μl of the enzyme stock solutions were diluted to 10 ml with 30 mM phosphate buffer, pH 7.4, prior to use. The resulting enzyme solutions were stored in ice water; 100 μl aliquots were withdrawn for assay except where another amount is specified.
The assay is based on conversion of oxalacetic acid to malate in the presence of NADH and MDH. The assay was made [formula] in 30 mM phosphate buffer, at ambient temperature, with and without appropriate surfactant concentrations, and contained 0.17 mM OAA and 0.13 mM NADH. The reaction was followed by monitoring the decrease in absorbance at 340 nm using either a Beckman 25 or Cary 118 spectrophotometer. The OAA solutions were stored over ice to prevent hydrolysis to pyruvic acid.

[1] = tested on: isoenzymes of creatinine phosphokinase (CPK); experiment: Conventional coupled CPK assay (hexokinase, glucose-6-phosphate dehydrogenase); type: biochemical; details: conventional assay with coupled reactions, hexokinase and glucose-6-phosphate dehydrogenase
Description: Of course, the particular amphiphile used and the concentration at which it is used will depend upon the particular isoenzyme being assayed. Not every amphiphile will have a discriminatory effect on the activity of isoenzymes in each isoenzyme system.

LD1 = LD1 (Sus scrofa, UniProt P00336); experiment: LDH isoenzyme assay using a multilayer element; type: biochemical, porcine; design: purified porcine LDH isoenzymes; details: web with DSS 0.54 g/m^2 in the spreading-reagent layer; control web 11
Method: (§6) Analytical elements containing all of the reagents necessary to quantitate specific isoenzymes were prepared according to the following format:
(§7) A polycarbonate-subbed Lexan® support was coated with a reagent layer comprising agarose (2.7 g/m^2) and NADH (0.12 g/m^2) in 0.1 M Tris buffer at pH 7.4, and a spreading-reagent layer comprising Avicel® (43 g/m^2), sodium pyruvate (0.5 g/m^2), polyvinyl pyrrolidone (PVP) (2.15 g/m^2) in isopropyl alcohol, and sodium decylsulfate (DSS) (0.54 g/m^2).
(§8) Control webs were coated as above except no sodium decylsulfate was added to the spreading-reagent layer.
(§9) Two aqueous solutions of purified porcine LDH isoenzymes, one containing LD1 and the other LD5, were prepared in 0.01 M Tris buffer, pH 7.4, at approximately 90 mU/ml. Sample aliquots (10 μl) of each solution and a buffer control (0.01 M Tris) were spotted onto the webs which were then monitored in a POS unit for decreasing fluorescence of the NADH with respect to time at 340 nm.

LD5 [2] = target: T10, LD5 (Sus scrofa, UniProt P00339); experiment: LDH isoenzyme assay using a multilayer element; type: biochemical, porcine; design: purified porcine LDH isoenzymes; details: web with DSS 0.54 g/m^2 in the spreading-reagent layer; control web 13
Method: as §6, §7, §8, §9

LD5 [3] = target: T10, LD5; experiment: LDH activity assay with amphiphile, LDH isoenzymes; type: biochemical, porcine; design: LD5 from two different species, i.e., rabbit muscle and hog muscle; from tissue; host or cells: hog muscle; details: 7 mM DSS; FIG. 8
Method: as §1, §2, §3

`CCCCCCCCCCOS(=O)(=O)[O-].[Na+]` [DSS, sodium decylsulfate] was tested, and the remaining activity at 7000 µM (LD2) was about 60%, the remaining activity at 7000 µM (LD3) was about 30% and the “LD4 activity relative to buffer” value (LD4) was “all the LD5 and LD4 activity is destroyed”. The “human LD1 activity” value (human LD1) was “fully active”, the “human LD2 activity” value (human LD2) was “completely deactivated” and the “human LD3 activity” value (human LD3) was “completely deactivated”. The “human LD4 activity” value (human LD4) was “completely deactivated”, the “human LD5 activity” value (human LD5) was “completely deactivated” and the “inactivation of mMDH relative to cMDH” value (mMDH) was “clear preferential inactivation of mMDH relative to cMDH”. For the same molecule, the “discriminatory effect on the activities of the isoenzymes of CPK” value [1] was “do not appear to have any discriminatory effect”, the “Isoenzyme Activity LD1” value (LD1) was 15 and the “Isoenzyme Activity LD5” value (LD5 [2]) was 0. For the same molecule, the “LD5 activity relative to buffer” value (LD5 [3]) was “all the LD5 and LD4 activity is destroyed”.
